From US12331035B2, “Bicyclic compound and use thereof” (SK BIOPHARMACEUTICALS CO., LTD., priority 2019, dated 2025)

Target: T1, PRMT5-MEP50 enzyme complex (Homo sapiens, UniProt O14744)
T1 construct: purchased BPS Bioscience (USA) 51045
Assay: In vitro PRMT5 enzyme activity assay (methylation of histone H4 arginine H4R3, ELISA absorbance at 450 nm)
Type: biochemical
Details: S-adenosylmethionine, histone H4 peptide, 2 hours at room temperature, 8 points 10 μM to 0.128 nM
Protocol: Method for Measuring Enzyme Activity
In vitro assay: PRMT5-MEP50 enzyme complex, cofactor S-adenosylmethionine (SAM) and histone H4 peptide were reacted in vitro, and methylation of arginine (H4R3) —which is the third amino acid of histone H4—was measured in order to measure the enzyme activity of PRMT5.
Reagents: PRMT5-MEP50 enzyme complex (Catalog No. 51045), blocking buffer (52100-B), histone methyltransferase reaction buffer 2 (4×HMT assay buffer 2, Catalog No. 52170), and primary antibody (primary antibody 4-3, Catalog No. 52150) were purchased from BPS Bioscience (USA). The histone H4 peptide (1-20 amino acids) was custom made by Komabiotech (Korea) and used. S-adenosylmethionine was purchased from NEB (New England Biolabs, USA, Catalog No. B9003S). Plates for coating histone H4 peptide, washing buffer and color development reagent were purchased from the following vendors: Plate (Immobilizer™-Amino Plate, NUNC, Denmark, Catalog No. 436023), carbonate-bicarbonate buffer (Sigma-Aldrich, USA, Catalog No. C3041), washing buffer (10×TBST, Biosesang, Korea, Catalog No. T2005), TMB ELISA substrate (Abcam, UK, Catalog No. ab210902), horseradish peroxidase (HRP)-conjugated antibody (Abcam, UK, Catalog No. ab6721).
Experimental procedure: The histone H4 peptide was diluted with carbonate-bicarbonate buffer and prepared to 100 μg/mL, and then dispensed onto the plate per 100 μL and reacted at 37° C. for 1 hour. PRMT5-MEP50 enzyme complex and S-adenosylmethionine were diluted with histone methyltransferase reaction buffer to prepare 5 μg/mL and 2 μM, respectively, and then 20 μL of PRMT5-MEP50 enzyme complex and 25 μL of S-adenosylmethionine were dispensed onto the plate prepared above. 5 μL of the compound diluted with 10% dimethyl sulfoxide solution was added thereto and reacted at room temperature for 2 hours (final volume=50 μL). The concentration of the compound was diluted 1:5 from 10 μM until the lowest concentration of 0.128 nM, and 8 points were used for the test. After preparing the primary antibody by diluting 1:2000 with blocking buffer, 100 μL was added to the plate and reacted at room temperature for 1 hour. After preparing horseradish peroxidase-conjugated antibody by diluting 1:10,000 with blocking buffer, 100 μL was added to the plate and reacted at room temperature for 1 hour. 100 μL of TMB substrate was added and reacted for 3 minutes at room temperature, and 100 μL of 1 N sulfuric acid was then added to terminate the reaction. Then, the absorbance at 450 nm was measured to calculate the IC50 value of the compound. (+++: 1 to 100 nM, ++: greater than 100 to 1,000 nM, +: greater than 1,000 to 10,000 nM)

T1 sequence (O14744 2-637 limits assumed): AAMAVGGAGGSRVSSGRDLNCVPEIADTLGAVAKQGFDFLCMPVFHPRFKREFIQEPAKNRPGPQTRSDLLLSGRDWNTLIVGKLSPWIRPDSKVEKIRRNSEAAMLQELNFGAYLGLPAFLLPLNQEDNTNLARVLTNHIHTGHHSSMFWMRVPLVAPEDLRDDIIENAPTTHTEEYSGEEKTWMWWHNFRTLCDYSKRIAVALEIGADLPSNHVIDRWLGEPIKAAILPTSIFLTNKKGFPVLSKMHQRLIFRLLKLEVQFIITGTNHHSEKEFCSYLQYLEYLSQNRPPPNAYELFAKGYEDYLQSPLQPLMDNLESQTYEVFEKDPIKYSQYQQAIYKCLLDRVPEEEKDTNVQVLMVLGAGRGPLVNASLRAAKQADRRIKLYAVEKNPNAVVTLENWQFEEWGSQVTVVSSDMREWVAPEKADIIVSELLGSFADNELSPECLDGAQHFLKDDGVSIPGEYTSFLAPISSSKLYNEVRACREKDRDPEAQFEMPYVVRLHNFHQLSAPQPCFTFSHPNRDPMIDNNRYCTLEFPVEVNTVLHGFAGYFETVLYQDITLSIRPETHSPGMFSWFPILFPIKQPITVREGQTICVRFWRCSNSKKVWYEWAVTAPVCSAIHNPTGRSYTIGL
T1 sequence (Q9BQA1 2-342 partner limits assumed): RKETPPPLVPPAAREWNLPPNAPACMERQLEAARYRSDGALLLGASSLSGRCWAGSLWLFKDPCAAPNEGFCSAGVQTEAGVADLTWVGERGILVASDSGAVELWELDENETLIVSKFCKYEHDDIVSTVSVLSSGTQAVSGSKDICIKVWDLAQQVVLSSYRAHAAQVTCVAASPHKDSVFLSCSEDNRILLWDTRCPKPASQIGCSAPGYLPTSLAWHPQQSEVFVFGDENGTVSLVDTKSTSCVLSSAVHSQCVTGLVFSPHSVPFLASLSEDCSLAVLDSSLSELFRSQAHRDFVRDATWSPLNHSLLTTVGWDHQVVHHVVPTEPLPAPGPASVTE

Row | Compound | IC50
1 | COCCN1CCN(c2ccc3c(c2)CCN(C[C@H](O)CN2CCc4ccccc4C2)C3=O)CC1 [Example 109, 2-[(2R)-3-(3,4-dihydro-1H-isoquinolin-2-yl)-2-hydroxy-propyl]-6-[4-(2-methoxyethyl)piperazin-1-yl]-3,4-dihydroisoquinolin-1-one] | 100 to 1000 nM
2 | O=C1c2ccc(N3CCN(C4COC4)CC3)cc2CCN1C[C@H](O)CN1CCc2ccccc2C1 [Example 121, 2-[(2R)-3-(3,4-dihydro-1H-isoquinolin-2-yl)-2-hydroxy-propyl]-6-[4-(oxetan-3-yl)piperazin-1-yl]-3,4-dihydroisoquinolin-1-one] | 100 to 1000 nM
3 | CC(=O)N1CCN(c2cc(F)c3c(c2)CCN(C[C@H](O)CN2CCc4ccccc4C2)C3=O)CC1 [Example 128, 6-(4-acetylpiperazin-1-yl)-2-[(2R)-3-(3,4-dihydro-1H-isoquinolin-2-yl)-2-hydroxy-propyl]-8-fluoro-3,4-dihydroisoquinolin-1-one] | 100 to 1000 nM
4 | O=C1c2ccc(NC3COC3)cc2CCN1C[C@H](O)CN1CCc2ccccc2C1 [Example 51, 2-[(2R)-3-(3,4-dihydro-1H-isoquinolin-2-yl)-2-hydroxy-propyl]-6-(oxetan-3-ylamino)-3,4-dihydroisoquinolin-1-one] | 100 to 1000 nM
5 | O=C1c2ccc(-c3ccncc3)cc2CCN1C[C@H](O)CN1CCc2ccccc2C1 [Example 8, 2-[(2R)-3-(3,4-dihydro-1H-isoquinolin-2-yl)-2-hydroxy-propyl]-6-(4-pyridyl)-3,4-dihydroisoquinolin-1-one] | 1 to 100 nM
6 | CC(C)(O)CNc1ccc2c(c1)CCN(C[C@H](O)CN1CCc3ccccc3C1)C2=O [Example 25, 2-[(2R)-3-(3,4-dihydro-1H-isoquinolin-2-yl)-2-hydroxy-propyl]-6-[(2-hydroxy-2-methyl-propyl)amino]-3,4-dihydroisoquinolin-1-one] | 1 to 100 nM
7 | O=C(Nc1ccc2c(c1)CCN(C[C@H](O)CN1CCc3ccccc3C1)C2=O)c1cccnc1 [Example 26, N-[2-[(2R)-3-(3,4-dihydro-1H-isoquinolin-2-yl)-2-hydroxy-propyl]-1-oxo-3,4-dihydroisoquinolin-6-yl]pyridine-3-carboxamide] | 1 to 100 nM
8 | O=C1c2ccc(NCC3CCCCC3)cc2CCN1C[C@H](O)CN1CCc2ccccc2C1 [Example 6, 6-(cyclohexylmethylamino)-2-[(2R)-3-(3,4-dihydro-1H-isoquinolin-2-yl)-2-hydroxy-propyl]-3,4-dihydroisoquinolin-1-one] | 1 to 100 nM
9 | O=C1c2ccc(NCC3CCOC3)cc2CCN1C[C@H](O)CN1CCc2ccccc2C1 (stereo partly drawn) [Example 30, 2-[(2R)-3-(3,4-dihydro-1H-isoquinolin-2-yl)-2-hydroxy-propyl]-6-(tetrahydrofuran-3-ylmethylamino)-3,4-dihydroisoquinolin-1-one] | 1 to 100 nM
10 | O=C1c2ccc(N3CCC3=O)cc2CCN1C[C@H](O)CN1CCc2ccccc2C1 [Example 20, 2-[(2R)-3-(3,4-dihydro-1H-isoquinolin-2-yl)-2-hydroxy-propyl]-6-(2-oxoazetidin-1-yl)-3,4-dihydroisoquinolin-1-one] | 100 to 1000 nM
11 | O=C1c2ccc(C3=CCNCC3)cc2CCN1C[C@H](O)CN1CCc2ccccc2C1 [Example 57, 2-[(2R)-3-(3,4-dihydro-1H-isoquinolin-2-yl)-2-hydroxy-propyl]-6-(1,2,3,6-tetrahydropyridin-4-yl)-3,4-dihydroisoquinolin-1-one] | 1 to 100 nM
12 | CCN1CCC(COc2ccc3c(c2)CCN(C[C@H](O)CN2CCc4ccccc4C2)C3=O)CC1 [Example 115, 2-[(2R)-3-(3,4-dihydro-1H-isoquinolin-2-yl)-2-hydroxy-propyl]-6-[(1-ethyl-4-piperidyl)methyloxy]-3,4-dihydroisoquinolin-1-one] | 100 to 1000 nM
13 | O=C1c2ccc(-c3ccnc(F)c3)cc2CCN1C[C@H](O)CN1CCc2ccccc2C1 [Example 12, 2-[(2R)-3-(3,4-dihydro-1H-isoquinolin-2-yl)-2-hydroxy-propyl]-6-(2-fluoro-4-pyridyl)-3,4-dihydroisoquinolin-1-one] | 1 to 100 nM
14 | COC(=O)N1CCN(c2ccc3c(c2)CCN(C[C@H](O)CN2CCc4ccccc4C2)C3=O)CC1 [Example 60, methyl 4-[2-[(2R)-3-(3,4-dihydro-1H-isoquinolin-2-yl)-2-hydroxy-propyl]-1-oxo-3,4-dihydroisoquinolin-6-yl]piperazine-1-carboxylate] | 100 to 1000 nM
15 | O=C1c2ccc(NC3CCCNC3)cc2CCN1C[C@H](O)CN1CCc2ccccc2C1 (stereo partly drawn) [Example 77, 2-[(2R)-3-(3,4-dihydro-1H-isoquinolin-2-yl)-2-hydroxy-propyl]-6-(3-piperidylamino)-3,4-dihydroisoquinolin-1-one] | 100 to 1000 nM
16 | CC(=O)N1CCN(c2ccc3c(c2)CCN(C[C@H](O)CN2CCc4ccccc4C2)C3=O)CC12CC2 [Example 82, 6-(4-acetyl-4,7-diazaspiro[2.5]octan-7-yl)-2-[(2R)-3-(3,4-dihydro-1H-isoquinolin-2-yl)-2-hydroxy-propyl]-3,4-dihydroisoquinolin-1-one] | 1 to 100 nM

The next lines start with the values.

Row | IC50 | Compound
17 | 100 to 1000 nM | O=C1c2ccc(N3CCOC3)cc2CCN1C[C@H](O)CN1CCc2ccccc2C1 [Example 39, 2-[(2R)-3-(3,4-dihydro-1H-isoquinolin-2-yl)-2-hydroxy-propyl]-6-oxazolidin-3-yl-3,4-dihydroisoquinolin-1-one]
18 | 100 to 1000 nM | CN(C)C1CCCN(c2ccc3c(c2)CCN(C[C@H](O)CN2CCc4ccccc4C2)C3=O)C1 (stereo partly drawn) [Example 116, 2-[(2R)-3-(3,4-dihydro-1H-isoquinolin-2-yl)-2-hydroxy-propyl]-6-[3-(dimethylamino)-1-piperidyl]-3,4-dihydroisoquinolin-1-one]
19 | 100 to 1000 nM | O=C1c2ccc(N3CCCC(O)C3)cc2CCN1C[C@H](O)CN1CCc2ccccc2C1 (stereo partly drawn) [Example 38, 2-[(2R)-3-(3,4-dihydro-1H-isoquinolin-2-yl)-2-hydroxy-propyl]-6-(3-hydroxy-1-piperidyl)-3,4-dihydroisoquinolin-1-one]
20 | 1000 to 10000 nM | O=C1c2ccc(N3CCCC3=O)cc2CCN1C[C@H](O)CN1CCc2ccccc2C1 [Example 18, 2-[(2R)-3-(3,4-dihydro-1H-isoquinolin-2-yl)-2-hydroxy-propyl]-6-(2-oxopyrrolidin-1-yl)-3,4-dihydroisoquinolin-1-one]
21 | 1 to 100 nM | O=C1c2ccc(N3CCNCC3)cc2CCN1C[C@H](O)CN1CCc2ccccc2C1 [Example 58, 2-[(2R)-3-(3,4-dihydro-1H-isoquinolin-2-yl)-2-hydroxy-propyl]-6-piperazin-1-yl-3,4-dihydroisoquinolin-1-one]
22 | 100 to 1000 nM | CN(C)CC1CCN(c2ccc3c(c2)CCN(C[C@H](O)CN2CCc4ccccc4C2)C3=O)CC1 [Example 117, 2-[(2R)-3-(3,4-dihydro-1H-isoquinolin-2-yl)-2-hydroxy-propyl]-6-[4-[(dimethylamino)methyl]-1-piperidyl]-3,4-dihydroisoquinolin-1-one]
23 | 1 to 100 nM | O=C1c2ccc(N3CCCC(CO)C3)cc2CCN1C[C@H](O)CN1CCc2ccccc2C1 (stereo partly drawn) [Example 36, 2-[(2R)-3-(3,4-dihydro-1H-isoquinolin-2-yl)-2-hydroxy-propyl]-6-[3-(hydroxymethyl)-1-piperidyl]-3,4-dihydroisoquinolin-1-one]
24 | 1 to 100 nM | O=C1c2ccc(N3CCC(O)CC3)cc2CCN1C[C@H](O)CN1CCc2ccccc2C1 [Example 37, 2-[(2R)-3-(3,4-dihydro-1H-isoquinolin-2-yl)-2-hydroxy-propyl]-6-(4-hydroxy-1-piperidyl)-3,4-dihydroisoquinolin-1-one]
